# Source: patent US20150352108A1, “AMINO-PYRIMIDINE COMPOUNDS AS INHIBITORS OF TBK1 AND/OR IKK EPSILON” (Alzheimer's Institute of America, priority 2009, published 2015)
# Legend:
# [1] = molecular target: T1, IKKε (Homo sapiens, UniProt Q14164); experiment: In-vitro IKKε kinase assay ([γ33]ATP filter-plate); type: biochemical; details: text bins; read-out: IC50 for inhibition of the kinase activity of IKKε
# T1 construct: His-tag; made in house; host or cells: Sf9 insect cells
# T1 sequence (Q14164 1-716): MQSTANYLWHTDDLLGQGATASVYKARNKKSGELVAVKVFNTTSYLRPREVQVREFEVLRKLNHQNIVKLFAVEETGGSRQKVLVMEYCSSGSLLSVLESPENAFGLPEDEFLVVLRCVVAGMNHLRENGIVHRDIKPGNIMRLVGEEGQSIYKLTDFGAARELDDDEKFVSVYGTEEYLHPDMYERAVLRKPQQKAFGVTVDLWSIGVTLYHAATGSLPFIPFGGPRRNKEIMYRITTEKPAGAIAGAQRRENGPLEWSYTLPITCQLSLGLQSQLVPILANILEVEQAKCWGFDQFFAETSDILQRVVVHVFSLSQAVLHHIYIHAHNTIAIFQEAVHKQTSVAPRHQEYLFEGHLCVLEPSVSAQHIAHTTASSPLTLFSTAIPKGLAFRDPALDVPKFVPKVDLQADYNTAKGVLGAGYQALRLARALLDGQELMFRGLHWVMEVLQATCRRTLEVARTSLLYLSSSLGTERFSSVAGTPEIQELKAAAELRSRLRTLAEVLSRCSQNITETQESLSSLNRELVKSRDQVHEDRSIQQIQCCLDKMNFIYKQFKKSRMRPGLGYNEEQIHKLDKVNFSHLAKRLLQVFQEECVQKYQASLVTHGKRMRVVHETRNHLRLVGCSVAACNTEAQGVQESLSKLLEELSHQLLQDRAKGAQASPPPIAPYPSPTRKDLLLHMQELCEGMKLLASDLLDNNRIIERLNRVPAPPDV
# How it was run: (§1)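 His-tagged Sf9-expressed kinases at 0.1 or 0.02 μg/ml (TBK1) and 0.1 or 0.015 μg/ml (IKKε) for normal and sensitized formats, with myelin basic protein or casein substrate. ATP was at 2×Km (60 μM TBK1, 32 μM IKKε) plus 0.3 μCi [γ33]ATP. Reactions ran 30-45 min, were captured on P-81 filters, and counts were normalized to DMSO.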
# [2] = molecular target: T2, TBK1 (Homo sapiens, UniProt Q9UHD2); experiment: In-vitro TBK1 kinase assay ([γ33]ATP filter-plate); type: biochemical; details: text bins; read-out: IC50 for inhibition of the kinase activity of TBK1
# T2 construct: His-tag; made in house; host or cells: Sf9 insect cells
# T2 sequence (Q9UHD2 1-729): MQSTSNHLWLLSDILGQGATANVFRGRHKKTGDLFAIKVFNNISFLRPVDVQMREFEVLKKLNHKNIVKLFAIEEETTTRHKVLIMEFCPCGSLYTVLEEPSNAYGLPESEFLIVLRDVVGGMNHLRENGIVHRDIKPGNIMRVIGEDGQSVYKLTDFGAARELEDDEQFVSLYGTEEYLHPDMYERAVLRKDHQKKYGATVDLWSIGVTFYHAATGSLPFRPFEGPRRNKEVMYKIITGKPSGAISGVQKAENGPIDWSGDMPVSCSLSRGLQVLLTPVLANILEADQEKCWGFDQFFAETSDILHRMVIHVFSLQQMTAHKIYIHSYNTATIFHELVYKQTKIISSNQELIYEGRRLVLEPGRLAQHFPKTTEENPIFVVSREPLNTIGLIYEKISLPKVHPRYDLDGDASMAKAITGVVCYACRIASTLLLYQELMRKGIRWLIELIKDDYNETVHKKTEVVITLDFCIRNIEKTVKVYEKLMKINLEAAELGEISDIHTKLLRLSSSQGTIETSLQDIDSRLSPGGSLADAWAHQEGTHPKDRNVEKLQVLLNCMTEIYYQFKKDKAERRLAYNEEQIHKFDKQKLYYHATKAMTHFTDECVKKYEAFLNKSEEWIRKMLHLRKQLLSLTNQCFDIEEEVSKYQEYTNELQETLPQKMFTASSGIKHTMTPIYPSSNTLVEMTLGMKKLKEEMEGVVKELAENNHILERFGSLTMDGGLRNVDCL
# How it was run: as §1
IC50 [1] [µM],IC50 [2] [µM],SMILES
0.005 to 0.05,0.01 to 0.1,"CC(C)C(=O)Nc1ccc(-c2ccnc(Nc3ccc(F)c(OCCCN4CCOCC4)c3)n2)cc1C#N [compound 411, N-{2-Cyano-4-[2-({4-fluoro-3-[3-(morpholin-4-yl)propoxy]phenyl}amino)pyrimidin-4-yl]phenyl}-2-methylpropanamide]"
0.005 to 0.05,0.01 to 0.1,"CCN(CC)CCN(CC)S(=O)(=O)Cc1ccc(Nc2nccc(-c3ccc(OC4CCOCC4)c(C#N)c3)n2)cc1 [compound 412, 1-[4-({4-[3-Cyano-4-(tetrahydro-2H-pyran-4-yloxy)phenyl]pyrimidin-2-yl}amino)phenyl]-N-[2-(diethylamino)ethyl]-N-ethylmethane-sulfonamide]"
0.005 to 0.05,0.01 to 0.1,"N#Cc1cc(-c2ccnc(Nc3ccc(N4CCOCC4)cc3)n2)ccc1NC(=O)C1CCC1 [compound 416, N-[2-cyano-4-(2-{[4-(morpholin-4-yl)phenyl]amino}pyrimidin-4-yl)phenyl] cyclobutane-carboxamide]"
0.005 to 0.05,< 0.01,"CCC(C)C(=O)Nc1ccc(-c2ccnc(Nc3ccc(N4CCOCC4)cc3)n2)cc1C#N (stereo not shown) [compound 417, N-[2-cyano-4-(2-{[4-(morpholin-4-yl)phenyl]amino}pyrimidin-4-yl)phenyl]-2-methylbutanamide]"
0.005 to 0.05,0.01 to 0.1,"CC(C)C(=O)Nc1ccc(-c2ccnc(Nc3ccc(CC(=O)N4CCOCC4)cc3)n2)cc1C#N [compound 419, N-{2-cyano-4-[2-({4-[2-(morpholin-4-yl)-2-oxoethyl]phenyl}amino)pyrimidin-4-yl]phenyl}-2-methylpropanamide]"
0.005 to 0.05,0.01 to 0.1,"CC(C)C(=O)Nc1ccc(-c2ccnc(Nc3ccc(CC(=O)NCCCN4CCOCC4)cc3)n2)cc1C#N [compound 420, N-[2-cyano-4-(2-{[4-(2-{[3-(morpholin-4-yl)propyl]amino}-2-oxoethyl)phenyl]amino}pyrimidin-4-yl)phenyl]-2-methylpropanamide]"
0.005 to 0.05,0.01 to 0.1,"CC(C)C(=O)Nc1ccc(-c2ccnc(Nc3cccc(CC(=O)N4CCOCC4)c3)n2)cc1C#N [compound 421, N-{2-cyano-4-[2-({3-[2-(morpholin-4-yl)-2-oxoethyl]phenyl}amino)pyrimidin-4-yl]phenyl}-2-methylpropanamide]"
0.005 to 0.05,0.01 to 0.1,"CC(C)C(=O)Nc1ccc(-c2ccnc(Nc3cccc(CC(=O)NCCCN4CCOCC4)c3)n2)cc1C#N [compound 422, N-[2-cyano-4-(2-{[3-(2-{[3-(morpholin-4-yl)propyl]amino}-2-oxoethyl)phenyl]amino}pyrimidin-4-yl)phenyl]-2-methylpropanamide]"
0.005 to 0.05,< 0.01,"CC(C)C(=O)Nc1ccc(-c2ccnc(Nc3ccc(N4CCN(CCO)CC4)cc3)n2)cc1C#N [compound 427, N-{2-cyano-4-[2-({4-[4-(2-hydroxyethyl)piperazin-1-yl]phenyl}amino)pyrimidin-4-yl]phenyl}-2-methylpropanamide]"
0.005 to 0.05,0.01 to 0.1,"CC(C)C(=O)Nc1ccc(-c2ccnc(Nc3ccc(CN4CCOCC4)cc3)n2)cc1C#N [compound 428, N-[2-cyano-4-(2-{[4-(morpholin-4-ylmethyl)phenyl]amino}pyrimidin-4-yl)phenyl]-2-methylpropanamide]"
0.005 to 0.05,0.01 to 0.1,"CC(C)C(=O)Nc1ccc(-c2ccnc(Nc3cccc(OCCN4CCOCC4)c3)n2)cc1C#N [compound 432, N-{2-cyano-4-[2-({3-[2-(morpholin-4-yl)ethoxy]phenyl}amino)pyrimidin-4-yl]phenyl}-2-methylpropanamide]"
0.005 to 0.05,< 0.01,"COc1ccc(Nc2nccc(-c3ccc(NC(=O)C(C)C)c(C#N)c3)n2)cc1OCCCN1CCOCC1 [compound 433, N-{2-cyano-4-[2-({4-methoxy-3-[3-(morpholin-4-yl)propoxy]phenyl}amino)pyrimidin-4-yl]phenyl}-2-methylpropanamide]"
0.005 to 0.05,0.01 to 0.1,COc1cc(-c2ccnc(Nc3ccc(CN4CCN(CCO)CC4)cc3)n2)cc(C#N)c1OC1CCOCC1 [compound 443]
0.005 to 0.05,0.01 to 0.1,"N#Cc1cc(-c2ccnc(Nc3ccc(N4CCOCC4)cc3)n2)ccc1OCCCN [compound 447, 2-(3-Aminopropoxy)-5-(2-{[4-(morpholin-4-yl)phenyl]amino}pyrimidin-4-yl)benzonitrile]"
0.05 to 0.5,0.01 to 0.1,"N#Cc1cc(-c2ccnc(Nc3ccc(N4CCOCC4)cc3)n2)ccc1OCC[C@H]1CCCCN1C(=O)CO [compound 448, 2-{2-[(2R)-1-(hydroxyacetyl)piperidin-2-yl]ethoxy}-5-(2-{[4-(morpholin-4-yl)phenyl]amino}pyrimidin-4-yl)benzonitrile]"
0.005 to 0.05,< 0.01,"CC(C)C(=O)Nc1ccc(-c2ccnc(Nc3cccc(CCO)c3)n2)cc1C#N [compound 450, N-[2-cyano-4-(2-{[3-(2-hydroxyethyl)phenyl]amino}pyrimidin-4-yl)phenyl]-2-methylpropanamide]"
0.005 to 0.05,< 0.01,"N#Cc1cc(-c2ccnc(Nc3ccc(N4CCOCC4)cc3)n2)ccc1OCC1CCNC1 (stereo not shown) [compound 456, 5-(2-{[4-(morpholin-4-yl)phenyl]amino}pyrimidin-4-yl)-2-(pyrrolidin-3-ylmethoxy) benzonitrile]"
0.005 to 0.05,0.01 to 0.1,"N#Cc1cc(-c2ccnc(Nc3ccc(N4CCOCC4)cc3)n2)ccc1OCCC1CCN(C(=O)CO)CC1 [compound 457, 2-{2-[1-(hydroxyacetyl)piperidin-4-yl]ethoxy}-5-(2-{[4-(morpholin-4-yl)phenyl]amino}pyrimidin-4-yl)benzonitrile]"
0.005 to 0.05,0.01 to 0.1,"CC(C)(COc1ccc(-c2ccnc(Nc3ccc(N4CCOCC4)cc3)n2)cc1C#N)C(=O)O [compound 460, 3-[2-cyano-4-(2-{[4-(morpholin-4-yl)phenyl]amino}pyrimidin-4-yl)phenoxy]-2,2-dimethylpropanoic acid]"
0.005 to 0.05,< 0.01,"N#Cc1cc(-c2ccnc(Nc3ccc(N4CCOCC4)cc3)n2)ccc1OCC1CCN(C(=O)CO)C1 (stereo not shown) [compound 461, 2-{[1-(hydroxyacetyl)pyrrolidin-3-yl]methoxy}-5-(2-{[4-(morpholin-4-yl)phenyl]amino}pyrimidin-4-yl)benzonitrile]"
0.005 to 0.05,0.01 to 0.1,"CC(C)C(=O)Nc1ccc(-c2ccnc(Nc3ccc(CCN4CCOCC4)cc3)n2)cc1C#N [compound 463, N-{2-cyano-4-[2-({4-[2-(morpholin-4-yl)ethyl]phenyl}amino)pyrimidin-4-yl]phenyl}-2-methylpropanamide]"

SMILES,IC50 [1] [µM],IC50 [2] [µM]
"CC(C)C(=O)Nc1ccc(-c2ccnc(Nc3cccc(CC(=O)N4CCN(C(C)C)CC4)c3)n2)cc1C#N [compound 423, N-(2-cyano-4-{2-[(3-{2-oxo-2-[4-(propan-2-yl)piperazin-1-yl]ethyl}phenyl)amino]pyrimidin-4-yl}phenyl)-2-methylpropanamide]",0.005 to 0.05,< 0.01
"CCN(CC)CCN(CC)C(=O)Cc1ccc(Nc2nccc(-c3ccc(NC(=O)C(C)C)c(C#N)c3)n2)cc1 [compound 425, N-[2-cyano-4-(2-{[4-(2-{[2-(diethylamino)ethyl] (ethyl)amino}-2-oxoethyl)phenyl]amino}pyrimidin-4-yl)phenyl]-2-methylpropanamide]",0.005 to 0.05,< 0.01
